Source: PMC13077603, “Fluorine‐18‐Labeled Nucleotide Analogs Targeting Ecto‐5'‐Nucleotidase (CD73) for Positron Emission Tomography Imaging of Solid Tumors” (Angewandte Chemie (International Ed. in English), 2026)

Molecular target: T1, CD73 in human breast cancer samples (Homo sapiens, UniProt P21589)
T1 construct: cryosections of breast tumor samples as well as sentinel lymph node samples were investigated; from tissue; host or cells: primary breast tumors and sentinel lymph nodes of two patients, 6 µm cryosections
T1 sequence (P21589 27-574): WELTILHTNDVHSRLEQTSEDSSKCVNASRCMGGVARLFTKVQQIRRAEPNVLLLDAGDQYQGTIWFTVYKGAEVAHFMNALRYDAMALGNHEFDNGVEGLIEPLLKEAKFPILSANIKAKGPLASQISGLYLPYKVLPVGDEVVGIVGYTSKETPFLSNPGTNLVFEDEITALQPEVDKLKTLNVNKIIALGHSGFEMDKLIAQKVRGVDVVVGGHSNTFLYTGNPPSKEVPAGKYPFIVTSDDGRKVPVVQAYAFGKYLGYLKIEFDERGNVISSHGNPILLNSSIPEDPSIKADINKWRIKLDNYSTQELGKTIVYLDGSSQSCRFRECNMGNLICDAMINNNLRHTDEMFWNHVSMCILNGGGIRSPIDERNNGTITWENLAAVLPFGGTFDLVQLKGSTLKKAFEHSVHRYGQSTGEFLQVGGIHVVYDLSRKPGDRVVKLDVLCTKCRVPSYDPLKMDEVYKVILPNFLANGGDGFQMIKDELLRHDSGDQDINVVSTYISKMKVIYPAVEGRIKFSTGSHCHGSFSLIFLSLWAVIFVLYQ
Assay: Autoradiography on human breast tumor and sentinel lymph node cryosections
Assay type: binding
Conditions: autoradiography, cryosections
Method: To test specific radiotracer binding to its target, we performed in situ autoradiography. [^18F]2 was applied onto cryosections of neighboring slides of tumor tissues from primary breast tumors from patient X (Figure 4A) and patient Y (Figure 4B), used for immunohistochemistry and AMPase activity determination. Sentinel LN from patient Y was incubated with [^18F]1 (Figure 4C).
FIGURE 4 Autoradiographic imaging of ^18F‐labeled CD73 tracer binding to tissue samples of breast tumors and sentinel lymph nodes. Primary breast tumor (A, B) and LN cryosections (C) were incubated with [^18F]2 or [^18F]1 in the absence (control) and in the presence of an unlabeled CD73 inhibitor, AMPCP (13) or JMS04‐14 (14), as indicated. The samples were processed for autoradiographic analysis, as described in the materials and methods section. The white dotted lines outline the tissue boundaries. (D). Structures of CD73 inhibitors applied as blockers in this study.
For the assessment of ^18F-labeled CD73 tracer binding to human tissues, cryosections of breast tumor samples as well as sentinel lymph node samples were investigated. Cryosections were thawed and pre-incubated for 15 min at room temperature in 2-[4-(2-hydroxyethyl)piperazin-1-yl]ethanesulfonic acid buffer (HEPES). […] Blocking compounds were prepared according to the molar activity of the radiolabeled tracers [^18F]MRS-4648 and [^18F]PSB-19427 aiming at a 1000-fold excess of the blocking agent. For each tissue sample, neighboring sections were incubated for 20 min at room temperature with a mixture of 50µL of the radiotracer and 50µL of the classical CD73 inhibitor AMPCP (25 nmol, in PBS), or JMS0414 (61 nmol, in HEPES), or HEPES buffer respectively. After incubation, slides were washed three times with PBS and Aqua bidest, mounted on a slide holder for the image acquisition, and covered with protection and scintillation foils. Digital autoradiography measurement of each slide was performed for 60 minutes (Micro Imager, Biospace, France). Acquired data were corrected for radioactive decay in reference to the start of the acquisition as well as the start of the incubation.

Compound: CCCN(Cc1ccc(-c2cn(CC[18F])nn2)cc1)c1nc(Cl)nc2c1ncn2[C@@H]1O[C@H](COP(=O)(O)CP(=O)(O)O)[C@@H](O)[C@H]1O [[^18F]1, [^18F]-[((2R,3S,4R,5R)-5-{2-chloro-6-[(4-{1-[2-(fluoro)ethyl]-1H-1,2,3-triazol-4-yl}benzyl)-(propyl)amino]-9H-purin-9-yl}-3,4-dihydroxytetrahydrofuran-2-yl)methoxy]methylene-bisphosphonic acid]
- Tracer binding to CD73 in human breast cancer samples: selectively bind

Compound: Cn1c(=O)n([C@@H]2O[C@H](COP(=O)(O)CP(=O)(O)O)[C@@H](O)[C@H]2O)cc/c1=N/OCc1ccc(-c2cn(CC[18F])nn2)cc1 [[^18F]2, [^18F]-{[(2R,3S,4R,5R)-5-(4-{[(4-{1-[2-(fluoro)ethyl]-1H-1,2,3-triazol-4-yl}benzyl)-oxy]imino}-3-methyl-2-oxo-3,4-dihydropyrimidin-1(2H)-yl)-3,4-dihydroxytetra-hydrofuran-2-yl]methoxy}methylenebisphosphonic acid]
- Tracer binding to CD73 in human breast cancer samples: selectively bind
